Experimental findings from publication PMC6954049 (Antiviral Research, 2019) are described below.

Where a name gives a salt, the structure may show the parent alone.

A short description of one series: in vitro. The conditions noted are these: human, CC50 (μM) AlamarBlue assay.
For another series, the target named is LCMV MG (Lymphocytic choriomeningitis virus, UniProt P09992+P14240). The format is cell-based.
For series [1], the system named is LCMV/vRNP cells (HEK293T).
Another series deals with rLCMV/GFP. Put plainly: microbe, parasite or virus in culture. The class given is cell-based.

Sequence of LCMV MG (P09992 whole entry, looked up): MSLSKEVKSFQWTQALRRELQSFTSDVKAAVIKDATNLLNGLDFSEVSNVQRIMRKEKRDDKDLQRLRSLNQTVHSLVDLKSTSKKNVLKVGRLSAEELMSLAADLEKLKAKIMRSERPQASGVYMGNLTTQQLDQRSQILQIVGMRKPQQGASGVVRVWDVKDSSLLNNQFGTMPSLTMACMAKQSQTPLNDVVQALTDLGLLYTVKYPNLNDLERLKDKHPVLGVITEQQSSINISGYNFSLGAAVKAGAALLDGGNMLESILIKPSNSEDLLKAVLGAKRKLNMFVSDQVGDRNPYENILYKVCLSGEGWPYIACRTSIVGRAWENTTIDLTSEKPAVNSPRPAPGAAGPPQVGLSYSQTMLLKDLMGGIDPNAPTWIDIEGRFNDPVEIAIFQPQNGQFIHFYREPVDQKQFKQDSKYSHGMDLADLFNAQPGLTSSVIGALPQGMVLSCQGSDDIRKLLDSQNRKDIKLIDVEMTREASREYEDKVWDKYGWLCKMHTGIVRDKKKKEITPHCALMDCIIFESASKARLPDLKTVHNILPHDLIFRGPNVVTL
Sequence of LCMV MG (P14240 whole entry, looked up): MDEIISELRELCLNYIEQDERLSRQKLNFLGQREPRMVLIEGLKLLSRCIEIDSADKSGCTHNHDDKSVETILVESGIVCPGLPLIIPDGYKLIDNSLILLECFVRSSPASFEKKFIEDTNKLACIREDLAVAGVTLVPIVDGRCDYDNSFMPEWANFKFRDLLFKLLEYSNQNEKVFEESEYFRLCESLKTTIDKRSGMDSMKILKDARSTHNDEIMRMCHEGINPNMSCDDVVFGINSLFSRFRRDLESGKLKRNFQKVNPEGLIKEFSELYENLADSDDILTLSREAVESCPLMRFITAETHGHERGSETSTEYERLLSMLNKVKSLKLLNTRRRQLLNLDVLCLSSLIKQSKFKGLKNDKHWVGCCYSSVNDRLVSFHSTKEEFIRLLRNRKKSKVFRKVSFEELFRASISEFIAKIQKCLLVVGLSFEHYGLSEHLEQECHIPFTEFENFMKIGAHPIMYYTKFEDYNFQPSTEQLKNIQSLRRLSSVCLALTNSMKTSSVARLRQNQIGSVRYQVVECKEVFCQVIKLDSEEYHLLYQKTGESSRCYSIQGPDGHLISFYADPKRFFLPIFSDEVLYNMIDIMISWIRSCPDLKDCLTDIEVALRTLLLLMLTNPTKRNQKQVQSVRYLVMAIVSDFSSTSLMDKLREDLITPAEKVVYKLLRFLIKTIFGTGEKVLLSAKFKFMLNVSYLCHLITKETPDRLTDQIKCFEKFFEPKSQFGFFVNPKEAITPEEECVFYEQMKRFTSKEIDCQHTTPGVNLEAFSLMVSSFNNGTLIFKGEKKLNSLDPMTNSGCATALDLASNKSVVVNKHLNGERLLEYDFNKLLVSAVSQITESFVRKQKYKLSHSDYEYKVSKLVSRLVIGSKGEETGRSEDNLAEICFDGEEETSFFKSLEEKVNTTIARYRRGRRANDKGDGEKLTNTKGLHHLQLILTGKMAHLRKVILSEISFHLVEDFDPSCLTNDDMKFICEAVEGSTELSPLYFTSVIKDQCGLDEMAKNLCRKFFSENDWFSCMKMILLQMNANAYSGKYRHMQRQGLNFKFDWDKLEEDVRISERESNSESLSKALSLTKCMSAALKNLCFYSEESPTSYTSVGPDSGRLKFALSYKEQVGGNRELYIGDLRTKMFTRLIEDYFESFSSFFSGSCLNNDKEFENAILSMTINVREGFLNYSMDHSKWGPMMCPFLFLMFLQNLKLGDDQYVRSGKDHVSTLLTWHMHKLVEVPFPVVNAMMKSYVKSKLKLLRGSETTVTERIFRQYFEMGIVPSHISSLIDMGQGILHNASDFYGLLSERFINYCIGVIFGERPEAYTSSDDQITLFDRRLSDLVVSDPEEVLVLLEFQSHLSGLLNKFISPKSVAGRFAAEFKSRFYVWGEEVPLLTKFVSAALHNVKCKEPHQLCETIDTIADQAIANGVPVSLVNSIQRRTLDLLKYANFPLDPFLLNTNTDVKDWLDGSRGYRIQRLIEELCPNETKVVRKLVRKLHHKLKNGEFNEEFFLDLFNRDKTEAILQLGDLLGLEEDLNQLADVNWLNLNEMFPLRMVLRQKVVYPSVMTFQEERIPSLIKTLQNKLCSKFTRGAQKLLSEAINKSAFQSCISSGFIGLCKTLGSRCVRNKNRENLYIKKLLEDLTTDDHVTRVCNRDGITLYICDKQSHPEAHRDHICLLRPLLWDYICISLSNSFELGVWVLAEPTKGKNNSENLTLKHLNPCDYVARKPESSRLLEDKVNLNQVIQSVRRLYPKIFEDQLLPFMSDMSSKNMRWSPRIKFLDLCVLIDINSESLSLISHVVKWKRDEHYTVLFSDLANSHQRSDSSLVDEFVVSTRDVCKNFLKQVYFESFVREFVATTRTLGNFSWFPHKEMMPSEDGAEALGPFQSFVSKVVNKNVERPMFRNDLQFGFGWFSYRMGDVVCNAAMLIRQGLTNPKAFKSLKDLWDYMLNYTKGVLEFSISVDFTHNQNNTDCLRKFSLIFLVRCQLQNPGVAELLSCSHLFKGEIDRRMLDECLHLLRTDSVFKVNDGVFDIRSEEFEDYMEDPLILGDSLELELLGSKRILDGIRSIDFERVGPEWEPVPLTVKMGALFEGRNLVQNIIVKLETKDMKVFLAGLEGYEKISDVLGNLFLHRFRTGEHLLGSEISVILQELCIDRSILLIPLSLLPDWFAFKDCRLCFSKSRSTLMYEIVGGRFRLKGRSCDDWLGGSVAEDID

On to `S=C(NCc1ccc2c(c1)OCO2)N1CCN(c2ncnc3c2oc2ccccc23)CC1` [Amuvatinib], for which the CC50 in the series “in vitro” is 28 µM. For `CCCCCC[C@H]1C(=O)O[C@H](C)[C@H](NC(=O)c2cccc(NC=O)c2O)C(=O)O[C@@H](C)[C@@H]1OC(=O)CC(C)C` [Antimycin A], the “effect on LCMV MG activity (GFP expression)” value (“effect on LCMV MG activity” below) at LCMV MG is on record as “dose-dependent inhibitory effect”. On to `CO/C=C(/C(=O)OC)c1ccccc1Oc1cc(Oc2ccccc2C#N)ncn1` [Azoxystrobin], for which the CC50 in series [1] came to 62.7 µM.

Consider `COc1ccc(C(O)C(C)Oc2ccc(C3OC(c4ccc(OC(C)C(O)c5ccc(OC)c(OC)c5)c(OC)c4)C(C)C3C)cc2OC)cc1OC` (stereo not shown) [Manassantin A], for which the “effect on LCMV MG activity” value on LCMV MG was “dose-dependent inhibitory effect”. In addition, the CC50 in “in vitro” was 24.3 µM. `CC[C@@]1([C@H]2O[C@H]([C@H]3O[C@@](O)(CO)[C@H](C)C[C@@H]3C)C[C@H]2C)CC[C@H]([C@@]2(C)CC[C@]3(C[C@H](O)[C@@H](C)[C@@H]([C@H](C)[C@H](OC)[C@@H](C)C(=O)O)O3)O2)O1` [Monensin sodium salt] had a CC50 in series [1] of 5.95 µM.

Turning to `CC[C@@H](C(=O)O)[C@@H]1O[C@@H]([C@@H](C)[C@H](O)[C@H](C)C(=O)[C@H](CC)[C@H]2O[C@]3(C=C[C@@H](O)[C@]4(CC[C@@](C)([C@H]5CC[C@](O)(CC)[C@H](C)O5)O4)O3)[C@H](C)C[C@@H]2C)[C@@H](C)C[C@@H]1C` [Narasin], the “effect on LCMV MG activity” value at LCMV MG is recorded as “dose-dependent inhibitory effect”. In “in vitro”, the CC50 was 4.44 µM. As for `O=c1[nH]c2ccccc2n1C1CCN(CCCC(c2ccc(F)cc2)c2ccc(F)cc2)CC1` [Pimozide], the “effect on LCMV MG activity” value on LCMV MG is on record as “dose-dependent inhibitory effect”. As to `C=C(C)[C@H]1Cc2c(ccc3c2O[C@@H]2COc4cc(OC)c(OC)cc4[C@@H]2C3=O)O1` [Rotenone], the EC50 in the series on rLCMV/GFP (Mammarenavirus choriomeningitidis, A549, 48 h) worked out at 0.66 µM. For `O=C1c2ccccc2-n2c1nc1ccccc1c2=O` [Tryptanthrin], in “in vitro”, the CC50 was found to be 12.2 µM. On the same count and under the same terms, the figure for `CC(C)[C@@H]1NC(=O)[C@H](C)OC(=O)[C@@H](C(C)C)NC(=O)[C@@H](C(C)C)OC(=O)[C@H](C(C)C)NC(=O)[C@H](C)OC(=O)[C@@H](C(C)C)NC(=O)[C@@H](C(C)C)OC(=O)[C@H](C(C)C)NC(=O)[C@H](C)OC(=O)[C@@H](C(C)C)NC(=O)[C@@H](C(C)C)OC1=O` [Valinomycin] is 1.93 µM. As to PF429242, in the series with rLCMV/GFP, the “effect on multiplication of live LCMV (rLCMV/GFP)” value is recorded as “inhibited”.

The EC50 is the concentration giving half of the maximal effect. The low end stands for higher potency in that assay, the high end for lower potency in that assay.
